Earlier results on one molecule are cited in US6340484B1, “Compositions containing neem seed extracts and saccharide” (E.I.D. Parry (India) Limited, priority 2000, dated 2002).

The conditions of the data set: 25 days at 29+/−1° C.

Where two headings read alike, the source gives them in different places.

For `C/C=C(\C)C(=O)O[C@H]1C[C@@H](OC(C)=O)[C@@]2(C(=O)OC)CO[C@H]3[C@@H](O)[C@@](C)([C@]45O[C@@]4(C)[C@@H]4C[C@H]5O[C@@H]5OC=C[C@@]54O)[C@H]4[C@]1(CO[C@]4(O)C(=O)OC)[C@@H]32` [azadirachtin A], the “degradation of azadirachtin A” value by setting is: (in acetone) 50%; (in carbon tetrachloride) 75-80%; (in chloroform) 75-80%; (in ethanol) “about 85%”; (in methanol) 50%; (in methylene chloride) 75-80%. For the same molecule, where the note is “in water”, the “degradation of azadirachtin A” value is “about 85%”.
